# Laboratory results as given in ChEMBL document CHEMBL1201862, “PubChem BioAssay data set” (2004).
# Active and inactive are the calls of the source.
# Legend:
# [1] = target: T1, Corticotropin-releasing factor receptor 2/Corticotropin-releasing factor-binding protein (Homo sapiens, UniProt P24387+Q13324); assay: Dose Response confirmation of uHTS hits for small molecule antagonists of the CRF-binding protein and CRF-R2 receptor complex.; type: functional; settings: read-out: IC50_Mean
# T1 sequence (Q13324 whole entry): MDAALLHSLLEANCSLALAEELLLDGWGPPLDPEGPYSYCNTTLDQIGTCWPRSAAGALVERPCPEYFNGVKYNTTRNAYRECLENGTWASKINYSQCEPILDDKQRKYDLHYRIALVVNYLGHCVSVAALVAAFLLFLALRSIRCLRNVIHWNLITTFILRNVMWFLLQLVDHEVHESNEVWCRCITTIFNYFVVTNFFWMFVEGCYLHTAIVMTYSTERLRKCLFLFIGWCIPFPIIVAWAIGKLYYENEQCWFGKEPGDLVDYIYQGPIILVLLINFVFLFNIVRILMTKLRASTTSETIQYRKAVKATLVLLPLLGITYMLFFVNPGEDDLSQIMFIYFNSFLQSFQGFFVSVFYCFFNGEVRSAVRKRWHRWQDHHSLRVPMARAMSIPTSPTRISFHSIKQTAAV
# T1 sequence (P24387 whole entry): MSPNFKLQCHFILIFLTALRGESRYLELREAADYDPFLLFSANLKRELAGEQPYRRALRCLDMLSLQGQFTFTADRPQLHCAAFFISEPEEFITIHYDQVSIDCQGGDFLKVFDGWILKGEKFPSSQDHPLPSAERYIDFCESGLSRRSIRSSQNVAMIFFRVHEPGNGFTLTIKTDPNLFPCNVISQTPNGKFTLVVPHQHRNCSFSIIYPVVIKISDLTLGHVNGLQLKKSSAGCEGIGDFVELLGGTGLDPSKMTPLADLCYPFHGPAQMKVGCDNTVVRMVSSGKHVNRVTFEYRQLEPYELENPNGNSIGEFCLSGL
# [2] = target: T1, Corticotropin-releasing factor receptor 2/Corticotropin-releasing factor-binding protein; assay: activators of CRF receptor 2 with binding protein – uHTS hits, confirmation (AID 602473); type: functional; settings: read-out: EC50_Mean
# [3] = target: T2, Rac GTPase-activating protein 1 (Homo sapiens, UniProt Q9H0H5); assay: blockers of MgcRacGAP-driven Rac1 GTP hydrolysis – biochemical, ADP Hunter fluorescence, primary and confirmatory, confirmation (AID 624330); type: functional
# T2 sequence (Q9H0H5 whole entry): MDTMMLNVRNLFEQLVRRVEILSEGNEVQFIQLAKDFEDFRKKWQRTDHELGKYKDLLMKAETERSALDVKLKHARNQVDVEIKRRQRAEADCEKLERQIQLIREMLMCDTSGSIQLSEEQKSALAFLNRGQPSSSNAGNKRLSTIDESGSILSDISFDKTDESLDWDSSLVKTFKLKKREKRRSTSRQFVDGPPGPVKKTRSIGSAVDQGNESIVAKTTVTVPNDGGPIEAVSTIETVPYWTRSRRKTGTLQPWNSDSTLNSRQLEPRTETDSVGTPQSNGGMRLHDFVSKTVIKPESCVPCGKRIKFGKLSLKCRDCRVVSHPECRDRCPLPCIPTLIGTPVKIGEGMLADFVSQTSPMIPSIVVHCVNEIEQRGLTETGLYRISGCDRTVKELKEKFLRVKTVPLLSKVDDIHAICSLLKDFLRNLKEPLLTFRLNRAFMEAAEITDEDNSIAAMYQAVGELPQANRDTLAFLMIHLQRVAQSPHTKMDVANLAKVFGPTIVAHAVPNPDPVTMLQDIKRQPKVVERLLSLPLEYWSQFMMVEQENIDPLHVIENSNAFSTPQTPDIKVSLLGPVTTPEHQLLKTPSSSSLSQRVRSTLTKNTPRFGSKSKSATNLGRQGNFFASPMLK
# [4] = target: T3, Replicative DNA helicase DnaB (Mycobacterium tuberculosis, UniProt P9WMR3); assay: DnaB intein splicing inhibitors, dose response, biochemical, cell-free fluorescence (AID 449749); type: functional
# T3 sequence (P9WMR3 whole entry): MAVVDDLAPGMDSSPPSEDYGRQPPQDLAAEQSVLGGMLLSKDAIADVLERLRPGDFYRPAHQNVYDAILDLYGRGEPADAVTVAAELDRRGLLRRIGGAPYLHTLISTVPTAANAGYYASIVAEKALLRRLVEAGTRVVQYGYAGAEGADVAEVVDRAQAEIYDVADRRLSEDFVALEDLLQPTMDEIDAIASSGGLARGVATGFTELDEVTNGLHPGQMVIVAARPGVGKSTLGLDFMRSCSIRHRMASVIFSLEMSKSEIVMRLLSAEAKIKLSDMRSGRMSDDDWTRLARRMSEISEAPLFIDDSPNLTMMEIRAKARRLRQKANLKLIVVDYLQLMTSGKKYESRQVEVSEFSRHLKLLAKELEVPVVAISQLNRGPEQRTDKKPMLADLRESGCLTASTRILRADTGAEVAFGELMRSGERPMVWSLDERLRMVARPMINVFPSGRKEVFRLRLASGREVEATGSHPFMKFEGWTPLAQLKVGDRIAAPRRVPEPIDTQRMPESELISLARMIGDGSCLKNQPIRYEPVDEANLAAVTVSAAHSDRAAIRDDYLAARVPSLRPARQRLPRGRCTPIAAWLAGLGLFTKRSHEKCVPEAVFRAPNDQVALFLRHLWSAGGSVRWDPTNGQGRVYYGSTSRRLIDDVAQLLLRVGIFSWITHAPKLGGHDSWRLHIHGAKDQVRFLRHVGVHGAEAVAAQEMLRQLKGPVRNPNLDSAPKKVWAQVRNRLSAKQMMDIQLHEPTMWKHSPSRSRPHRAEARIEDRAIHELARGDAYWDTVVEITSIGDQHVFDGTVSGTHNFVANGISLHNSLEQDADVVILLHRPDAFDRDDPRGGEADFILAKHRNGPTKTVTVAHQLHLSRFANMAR
# [5] = target: T4, Protein RecA (Mycobacterium tuberculosis, UniProt P9WHJ3); assay: Fluorescence Cell-Free Homogeneous Dose Retest to Identify Inhibitors of RecA-Intein Splicing Activity. [Related pubchem assays (depositor defined):AID2097, AID2223, AID489010, AID492950]; type: functional
# T4 sequence (P9WHJ3 whole entry): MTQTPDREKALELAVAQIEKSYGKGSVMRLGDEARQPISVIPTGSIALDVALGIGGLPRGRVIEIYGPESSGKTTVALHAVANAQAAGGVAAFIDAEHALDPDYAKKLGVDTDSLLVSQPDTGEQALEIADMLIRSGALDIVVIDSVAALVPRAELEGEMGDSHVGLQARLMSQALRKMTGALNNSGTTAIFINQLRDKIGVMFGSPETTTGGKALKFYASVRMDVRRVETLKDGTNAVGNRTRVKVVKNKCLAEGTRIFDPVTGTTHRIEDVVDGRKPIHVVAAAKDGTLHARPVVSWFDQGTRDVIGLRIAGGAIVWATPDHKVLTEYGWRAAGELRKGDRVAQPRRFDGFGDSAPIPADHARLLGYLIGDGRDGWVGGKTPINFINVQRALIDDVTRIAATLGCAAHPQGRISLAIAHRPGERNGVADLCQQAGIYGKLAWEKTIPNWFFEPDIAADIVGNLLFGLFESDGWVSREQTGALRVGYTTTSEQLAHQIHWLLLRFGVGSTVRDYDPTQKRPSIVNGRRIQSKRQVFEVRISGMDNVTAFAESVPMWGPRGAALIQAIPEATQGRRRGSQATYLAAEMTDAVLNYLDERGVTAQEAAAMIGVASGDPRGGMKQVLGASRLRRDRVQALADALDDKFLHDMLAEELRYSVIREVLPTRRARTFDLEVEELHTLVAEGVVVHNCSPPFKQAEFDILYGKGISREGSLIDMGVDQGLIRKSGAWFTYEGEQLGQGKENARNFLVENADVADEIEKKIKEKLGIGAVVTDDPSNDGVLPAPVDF
# [6] = target: Cytochrome P450 3A4 (Homo sapiens, UniProt P08684);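 note: CYP3A4 tested as one member of a cytochrome P450 panel screen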
# [7] = target: Cytochrome P450 2C9 (Homo sapiens, UniProt P11712)
# [8] = target: Cytochrome P450 2C19 (Homo sapiens, UniProt P33261); assay: Cytochrome panel assay with activity outcomes. Panel member name: p450-cyp2c19 Compounds with AC50 equal or less than 10 uM are considered active; type: functional; settings: read-out: AC50
# [9] = system: Streptococcus sp. 'group A'; assay: Streptococcus pyogenes SK(-)GAS viability under kanamycin – luminescence, BacTiterGlo, confirmation, counter-screen for streptokinase expression inhibitor project, dose response (AID 1900); type: functional, organism-based
# [10] = target: T5, Streptokinase A (Streptococcus pyogenes serotype M1, UniProt P10520); assay: viability-normalized secreted streptokinase activity reduction – plasminogen activation absorbance, OD405, dose response (AID 1914); type: functional, Streptococcus pyogenes M1 GAS;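 note: secreted streptokinase activity via plasminogen activation per viability signal from cell pellet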
# T5 sequence (P10520 whole entry): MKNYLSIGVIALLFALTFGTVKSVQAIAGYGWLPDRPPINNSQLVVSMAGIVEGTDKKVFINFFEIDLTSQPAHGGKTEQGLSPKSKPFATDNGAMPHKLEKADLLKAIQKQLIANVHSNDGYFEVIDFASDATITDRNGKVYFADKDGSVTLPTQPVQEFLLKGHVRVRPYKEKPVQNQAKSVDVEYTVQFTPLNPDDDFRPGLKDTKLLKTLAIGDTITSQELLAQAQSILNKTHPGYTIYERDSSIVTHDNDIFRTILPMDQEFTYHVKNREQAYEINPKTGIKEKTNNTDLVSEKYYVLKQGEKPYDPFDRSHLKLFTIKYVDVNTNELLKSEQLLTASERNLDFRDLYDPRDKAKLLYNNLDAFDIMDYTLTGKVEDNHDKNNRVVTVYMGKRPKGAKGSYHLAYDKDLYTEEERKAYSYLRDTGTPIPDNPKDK
# [11] = system: Streptococcus; assay: GAS UMAA2166 growth inhibition – luminescence, BacTiterGlo, counter-screen for streptokinase expression inhibitor project, dose response (AID 1915); type: functional, organism-based;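 note: potency for reduction of bacterial viability or growth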
# Cytochrome P450 2C9, sequence (P11712 whole entry): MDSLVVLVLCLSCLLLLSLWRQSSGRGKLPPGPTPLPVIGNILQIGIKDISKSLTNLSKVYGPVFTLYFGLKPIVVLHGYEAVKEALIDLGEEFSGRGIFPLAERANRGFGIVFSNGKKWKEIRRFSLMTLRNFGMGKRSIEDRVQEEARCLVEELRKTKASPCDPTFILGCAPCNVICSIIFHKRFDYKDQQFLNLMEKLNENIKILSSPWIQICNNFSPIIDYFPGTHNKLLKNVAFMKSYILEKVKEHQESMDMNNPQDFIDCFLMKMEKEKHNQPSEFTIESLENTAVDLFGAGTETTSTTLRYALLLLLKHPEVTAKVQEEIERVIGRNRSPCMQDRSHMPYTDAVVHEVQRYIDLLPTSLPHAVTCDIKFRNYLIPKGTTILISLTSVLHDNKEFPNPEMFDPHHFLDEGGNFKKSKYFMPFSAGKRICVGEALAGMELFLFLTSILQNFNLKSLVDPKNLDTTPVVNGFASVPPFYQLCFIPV
# Cytochrome P450 3A4, sequence (P08684 whole entry): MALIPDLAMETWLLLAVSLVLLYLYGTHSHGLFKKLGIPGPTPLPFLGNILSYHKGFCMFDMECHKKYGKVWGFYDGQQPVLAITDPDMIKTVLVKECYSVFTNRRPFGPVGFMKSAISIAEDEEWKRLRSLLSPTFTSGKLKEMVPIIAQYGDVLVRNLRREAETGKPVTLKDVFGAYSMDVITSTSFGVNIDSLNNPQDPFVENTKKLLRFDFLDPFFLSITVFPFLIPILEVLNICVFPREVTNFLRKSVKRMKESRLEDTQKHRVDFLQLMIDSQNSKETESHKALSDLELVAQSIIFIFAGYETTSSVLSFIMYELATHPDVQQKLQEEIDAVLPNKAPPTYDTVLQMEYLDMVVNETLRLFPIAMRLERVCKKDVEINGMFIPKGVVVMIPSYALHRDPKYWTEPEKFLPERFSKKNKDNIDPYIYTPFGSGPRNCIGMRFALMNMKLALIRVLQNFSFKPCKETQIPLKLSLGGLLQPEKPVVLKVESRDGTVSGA
# Cytochrome P450 2C19, sequence (P33261 whole entry): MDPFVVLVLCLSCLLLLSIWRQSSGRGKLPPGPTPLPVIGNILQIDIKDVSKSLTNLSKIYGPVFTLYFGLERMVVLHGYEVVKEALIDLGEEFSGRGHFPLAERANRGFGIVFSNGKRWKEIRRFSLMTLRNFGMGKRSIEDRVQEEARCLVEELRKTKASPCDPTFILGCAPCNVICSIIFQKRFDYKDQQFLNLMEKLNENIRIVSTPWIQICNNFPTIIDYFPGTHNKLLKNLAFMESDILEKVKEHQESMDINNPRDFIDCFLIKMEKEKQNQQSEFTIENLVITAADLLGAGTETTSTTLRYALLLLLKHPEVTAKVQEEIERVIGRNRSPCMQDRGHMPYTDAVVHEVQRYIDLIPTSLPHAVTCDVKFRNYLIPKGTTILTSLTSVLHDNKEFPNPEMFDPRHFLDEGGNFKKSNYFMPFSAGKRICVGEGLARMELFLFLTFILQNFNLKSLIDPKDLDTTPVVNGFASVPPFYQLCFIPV
smiles,measurement,setting,value
COc1ccc(-c2cc(C(=O)O)nc3ccc4ccccc4c23)cc1OC,IC50,[1],> 47.1 µM (inactive)
same,EC50,[2],> 53 µM (inactive)
c1ccc(-c2ccccc2OCCN2CCOCC2)cc1,IC50,[3],111 µM (active)
CCCCCCCCc1c(O)nc(-n2[nH]c(C)c(CCO)c2=O)[nH]c1=O,AC50,[4],47.4 µM (active)
same,EC50,[5],96.8 µM (active)
COc1ccc(C2c3c(-c4ccccc4O)n[nH]c3C(=O)N2Cc2ccco2)cc1 (centres undefined),IC50,[1],> 47.1 µM (inactive)
same,EC50,[2],> 53 µM (inactive)
CCCCC/C=C\C[C@H](O)/C=C\c1cccc(C[C@H](O)CCCCO)n1,AC50,[6],6.31 µM (inconclusive)
same,AC50,[7],20 µM (inconclusive)
CC1CN(CCCCN2C(=O)c3ccccc3C2=O)CC(C)O1 (centres undefined),IC50,[3],125 µM (active)
Cc1ncc([N+](=O)[O-])n1CCOC(N)=O [BAMNIDAZOLE],IC50,[1],> 47.1 µM (inactive)
same,EC50,[2],> 53 µM (inactive)
CCN(CC(=O)NCc1ccc(F)cc1)C(=O)CN1CCN(c2ccc(OC)cc2)CC1,IC50,[3],42.3 µM (active)
OCCN1CCN(C(S)=Nc2cccc(C(F)(F)F)c2)CC1,IC50,[3],126 µM (active)
O=C(COC(=O)CCc1ccc(S(=O)(=O)N2CCOCC2)cc1)Nc1ccccc1OC(F)F,IC50,[1],> 47.1 µM (inactive)
same,EC50,[2],> 53 µM (inactive)
COc1cc(/C=C/C(=O)OCC(=O)N2CCCc3ccccc32)ccc1O,IC50,[3],36.1 µM (active)
Cc1sc2ncnc(Sc3ccccc3C(=O)Nc3ccc(C#N)cc3)c2c1C,IC50,[1],> 47.1 µM (inactive)
same,EC50,[2],> 53 µM (inactive)
COc1ccc(CN2CCN(CCCCOc3ccc(Cl)cc3)CC2)c(OC)c1OC,IC50,[3],71.4 µM (active)
COC(=O)c1ccc(CNC(=O)COC(=O)/C=C/c2ccc(O)c(OC)c2)cc1,IC50,[3],44.4 µM (active)
CC(NC(=O)C1CCCN1S(=O)(=O)c1cccc2nsnc12)c1ccccc1 (centres undefined),IC50,[1],> 47.1 µM (inactive)
same,EC50,[2],> 53 µM (inactive)
COc1ccc(CN(C(=O)c2ccc(C)cc2)C2CCS(=O)(=O)C2)cc1 (centres undefined),IC50,[1],> 47.1 µM (inactive)
same,EC50,[2],> 53 µM (inactive)
Cc1cccc(NC(=O)C2CC2c2ccccc2)c1C (centres undefined),EC50,[2],> 53 µM (inactive)
Cc1ccc(Cl)cc1N1CCN(C(=O)Cc2c(C(=O)O)[nH]c3ccc(Cl)cc23)CC1,IC50,[1],> 47.1 µM (inactive)
same,EC50,[2],> 53 µM (inactive)
Cc1cc(=O)n(CCCc2ccccc2)[nH]1,AC50,[4],2.4 µM (active)
same,EC50,[5],2.23 µM (active)
COc1cc2oc(-c3ccc(O)cc3)cc(=O)c2c(OC)c1O,IC50,[3],18.2 µM (active)
O=C(NC(C(=O)c1ccccc1)n1cnccc1=O)c1ccccc1 (centres undefined),AC50,[8],2.82 µM (inconclusive)
same,AC50,[6],14.1 µM (inconclusive)
same,AC50,[7],8.91 µM (inconclusive)
CCc1ccc(C2C(C#N)=C(N)C(C#N)(C#N)C3=CCC(C(C)(C)C)CC32)cc1 (centres undefined),EC50,[9],4.85 µM (active)
same,EC50,[10],5.84 µM (active)
same,EC50,[11],> 150 µM (not active)
same,AC50,[4],> 120 µM (inactive)
same,EC50,[5],3 µM (active)
Cc1nc2ccccc2nc1N/N=C/c1ccc(O)cc1,IC50,[3],29.2 µM (active)
O=c1c2ccccc2nc2n1C(CSc1ccc(F)cc1)CN2 (centres undefined),AC50,[6],31.6 µM (inconclusive)
same,AC50,[7],39.8 µM (inconclusive)
COc1ccc(/C=C2/CC/C(=C\c3ccc(OC)c(OC)c3OC)C2=O)c(OC)c1OC,EC50,[2],> 53 µM (inactive)
Cc1ccc(-c2noc(-c3cc4ccccc4oc3=O)n2)cc1,AC50,[6],3.55 µM (inconclusive)
same,AC50,[7],6.31 µM (inconclusive)
Cc1cc(-c2[nH]nc3c2C(c2ccsc2)C(C#N)=C(N)O3)c(C)s1 (centres undefined),AC50,[4],3.47 µM (active)
same,EC50,[5],1.2 µM (active)
CCCc1n[nH]c2c1C(c1c[nH]nc1-c1ccc(F)cc1)C(C#N)=C(N)O2 (centres undefined),AC50,[4],2.08 µM (active)
same,EC50,[5],1.54 µM (active)
